Results on one molecule are retold here after US20260345584A1, “METHODS AND PHARMACEUTICAL COMPOSITIONS FOR TREATING CHEMOTHERAPY-INDUCED PERIPHERAL NEUROPATHY WITH EG5 INHIBITORS” (UNIVERSITY OF MIAMI, priority 2023, published 2026).

The test system of one experiment is keratinocyte nuclei. The experiment in a line: Nuclear volume and sphericity of keratinocytes. The format is in vivo, zebrafish. The settings on record: 96 hr, keratinocytes with dfMTs. As to the method: Nuclear sphericity and volume were calculated in Imaris following 3D rendering of round keratinocyte nuclei using the Surface tool. First, background subtractions were performed, followed by automatic threshold detection. The threshold was adjusted if necessary to fit the nucleus. Thresholds were kept constant for comparisons.
It was expected that dfMTs should be in close proximity to the nucleus in order to activate Nox1 by mechanotransduction. To further confirm this expectation, high resolution imaging and 3D rendering of keratinocyte dfMTs and nuclei were used.

For experiment [1], the system named is HyPer oxidation in keratinocytes. The experiment in a line: HyPer imaging of H2O2 production upon caudal fin stretch. The experiment is classed as in vivo, zebrafish. The settings on record: wildtype, 3 hr paclitaxel. As to the method: HyPer fluorescence was measured in the oxidized (505 nm) and unoxidized (420 nm) channels by using the region of interest (ROI) function in ZEN Black (Zeiss) whereby ROIs were selected inside highly magnified mitochondria (HyPer-mito), cytoplasm (HyPer-cyto) or the plasma membrane (HyPer-CAAX). The data was exported, and ratios determined in Excel. H2O2 measurements in zebrafish transiently injected with tp63:Hyper were manually performed by placing spot objects in Imaris 9.5.1 onto individual cells such that the spots extended to the lateral edges. Fluorescence intensities were measured inside the spots and 505 nm/420 nm ratios were subsequently calculated.
The extent of stretch that was induced in wildtype transgenic Tg(tp63:GFP-CAAX) (Lisse et al., 2016, Proceedings of the National Academy of Sciences of the United States of America 113: E2189-2198) fish in which keratinocyte plasma membranes are fluorescently labelled was characterized.
To further investigate whether paclitaxel in combination with stretch alters ROS formation, HyPer imaging was performed.

The next experiment deals with Eg5. The experiment is described as follows: Eg5 immunofluorescence in zebrafish caudal fin. The format is in vivo. The settings on record: 22 μM paclitaxel, 96 hr. On the procedure:
The stock solution was divided into 20-30 μl aliquots and stored at −20 °C until use (maximal 6 months). Immediately prior to use, paclitaxel was diluted in Ringer's solution and added to dechorionated larval zebrafish. The larval fish were placed individually or in small groups into wells of a 12-well plate containing the treatment solutions. The control group was 0.05% DMSO. Plates were incubated at 28.5 °C and protected from light. Treatment lengths are indicated in the Drawings, Description of the Drawings, and Examples where appropriate. […] EMD534085, Eg5 inhibitor (MedChemExpress, Cat. No. HY-15000) was diluted in 100% DMSO to make a 10 mM stock solution and stored at −20 °C. […] The solutions were exchanged every 48 hr.
Larval fish were transferred into […] glass vials and fixed in 4% paraformaldehyde (PFA)/1× Phosphate-buffered saline (PBS) for 1.5 hr at room temperature, with gentle rocking. Following a 5-minute incubation in 1×PBS+0.1% Tween-20 (PBST), zebrafish were permeabilized in 1×PBS+0.1% Triton X-100 for 10-30 min. Larval fish were transferred into 2 ml reaction tubes and incubated in blocking buffer (1×PBST+5% BSA) for 30 min at room temperature, with rocking. […]

`CC(=O)O[C@H]1C(=O)[C@@]2(C)[C@H]([C@H](OC(=O)c3ccccc3)[C@]3(O)C[C@H](OC(=O)[C@H](O)[C@@H](NC(=O)c4ccccc4)c4ccccc4)C(C)=C1C3(C)C)[C@]1(OC(C)=O)CO[C@@H]1C[C@@H]2O` [paclitaxel] had a nuclear volume in the experiment with keratinocyte nuclei (22 μM paclitaxel) of 582±83.18 μm3. In the experiment on keratinocyte nuclei (paclitaxel), the “nuclear sphericity (1=spherical vs. 0=nonspherical)” value is 0.23±0.01. Further, in experiment [1], the “time of peak HyPer oxidation post-stretch” value was in the range of 10 to 20 min. The Eg5 localization/induction result with Eg5 is “promoted Eg5 puncta formation”.
